Experiments:
Jurkat = assay: Inhibition of IL2 production in Jurkat T cells; type: functional, cell-based; settings: Homo sapiens
[1] = Tmax in mice at 20 mg/kg, po; type: ADME, organism-based; design: dose 20 mg/kg, route oral; settings: mouse, in vivo
[2] = Volume of distribution in mice at 10 mg/kg, iv; type: ADME, organism-based; design: dose 10 mg/kg, route intravenous; settings: mouse, in vivo, read-out: Vss
Mus musculus [3] = assay: Inhibition of anti CD3-induced IL2 production in mice serum at 50 mg/kg, sc; type: functional; settings: route subcutaneous
[4] = Cmax in mice at 20 mg/kg, po; type: ADME, organism-based; design: dose 20 mg/kg, route oral; settings: mouse, in vivo
[5] = Half life in mice at 10 mg/kg, iv; type: ADME, organism-based; design: dose 10 mg/kg, route intravenous; settings: mouse, in vivo
[6] = Tmax in mice at 10 mg/kg, iv; type: ADME, organism-based; design: dose 10 mg/kg, route intravenous; settings: mouse, in vivo
EL4 = assay: cells; settings: Mus musculus
[7] = biological target: Tyrosine-protein kinase SYK (Homo sapiens, UniProt P43405); assay: Inhibition of Syk
[8] = Oral bioavailability in mice at 20 mg/kg, po; type: ADME, organism-based; settings: mouse, in vivo
[9] = Clearance in mice at 10 mg/kg, iv; type: ADME, organism-based; design: dose 10 mg/kg, route intravenous; settings: mouse, in vivo
[10] = Half life in mice at 20 mg/kg, po; type: ADME, organism-based; design: dose 20 mg/kg, route oral; settings: mouse, in vivo
Mus musculus [11] = assay: Inhibition of anti CD3-induced IL2 production in mice serum at 50 mg/kg, sc after 1.75 hrs; type: functional; settings: route subcutaneous
[12] = Mean residence time in mice at 10 mg/kg, iv; type: ADME, organism-based; design: dose 10 mg/kg, route intravenous; settings: mouse, in vivo
[13] = Mean residence time in mice at 20 mg/kg, po; type: ADME, organism-based; design: dose 20 mg/kg, route oral; settings: mouse, in vivo
Mus musculus [14] = species on record: Mus musculus; assay: Stability in mouse liver microsomes assessed as degradation rate per mg of protein; type: ADME
[15] = biological target: T1, Tyrosine-protein kinase ITK/TSK (Homo sapiens, UniProt Q08881); assay: Inhibition of Itk
T1 sequence (Q08881 whole entry): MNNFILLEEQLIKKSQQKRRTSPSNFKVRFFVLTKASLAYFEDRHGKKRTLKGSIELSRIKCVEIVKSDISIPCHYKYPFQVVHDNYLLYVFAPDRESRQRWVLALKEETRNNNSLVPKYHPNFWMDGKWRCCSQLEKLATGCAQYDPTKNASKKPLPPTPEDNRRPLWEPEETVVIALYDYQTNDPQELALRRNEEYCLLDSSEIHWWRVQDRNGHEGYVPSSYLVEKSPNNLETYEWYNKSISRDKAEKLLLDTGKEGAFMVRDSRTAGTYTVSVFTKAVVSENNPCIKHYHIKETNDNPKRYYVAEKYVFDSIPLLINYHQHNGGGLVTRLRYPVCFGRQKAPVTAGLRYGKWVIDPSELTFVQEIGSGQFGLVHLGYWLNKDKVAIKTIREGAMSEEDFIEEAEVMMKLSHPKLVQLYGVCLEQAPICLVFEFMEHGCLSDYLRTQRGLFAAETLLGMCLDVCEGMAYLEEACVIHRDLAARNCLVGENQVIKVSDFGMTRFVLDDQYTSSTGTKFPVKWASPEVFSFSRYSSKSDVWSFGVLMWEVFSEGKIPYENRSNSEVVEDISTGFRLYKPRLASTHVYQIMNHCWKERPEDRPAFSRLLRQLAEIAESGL

Structure (SMILES) | IC50 (Jurkat) [nM] | Stability (Mus musculus [14]; mouse) [nmol/min/mg] | other results
COc1cc(C)c(Sc2cnc(NC(=O)c3ccc(OC(C)C)cc3)s2)cc1C(=O)N1CCN(C(C)=O)CC1 | 360 | – | –
COc1cc(C)c(Sc2cnc(NC(=O)c3ccc(CNC(C)C(C)(C)C)cc3)s2)cc1C(=O)N1CCN(C(C)=O)CC1 (stereo not drawn) | – | – | Tmax [1]: 1 h; Vd [2]: 7 L/kg; inhibition in vivo at 50 mg/kg (Mus musculus [3]): 50%; Cmax [4]: 69 nM; half-life [5]: 1.3 h; Tmax [6]: 3 min; IC50 (EL4): 70 nM; IC50 [7]: > 50000 nM; IC50 (Protein kinase C (PKC)): 24000 nM; bioavailability [8]: 6.4%; clearance [9]: 116 mL/min/kg; half-life [10]: 1.4 h; Activity (Mus musculus [11]): 1.89 µM; MRT [12]: 1 h; MRT [13]: 3.1 h
CC(=O)N1CCN(C(=O)c2cccc(Sc3cnc(NC(=O)c4ccc(N(C)C)cc4)s3)c2C)CC1 | – | – | IC50 [15]: > 25000 nM
O=C(O)C1CCCN(C(=O)c2cc(Sc3cnc(Nc4cccc(Br)n4)s3)ccc2O)C1 (stereo not drawn) | > 50000 | < 0.1 | –
CN(CC(=O)O)C(=O)c1cc(Sc2cnc(Nc3cccc(Br)n3)s2)ccc1O | > 10000 | < 0.1 | –
COc1cc(C)c(Sc2cnc(NC(=O)C3CC3)s2)cc1C(=O)N1CCN(C(C)=O)CC1 | 690 | > 0.3 | –
CS(=O)(=O)NC(=O)C1CCCN(C(=O)c2cc(Sc3cnc(Nc4cccc(Br)n4)s3)ccc2O)C1 (stereo not drawn) | > 10000 | – | Stability (Mus musculus [14]): < 0.1 nmol/min
COc1cc(C)c(Sc2cnc(Nc3cc(C)cc(C)n3)s2)cc1C(=O)N1CCN(C(C)=O)CC1 | 230 | – | –
COc1cc(C)c(Sc2cnc(NC(=O)c3ccc(N(C)C)cc3)s2)cc1C(=O)N1CCN(C(C)=O)CC1 | 280 | – | –
CC(=O)N1CCN(C(=O)c2cc(Sc3cnc(Nc4cc(C)cc(C)n4)s3)ccc2O)CC1 | 460 | – | –
CC(=O)N1CCN(C(=O)c2cccc(Sc3cnc(Nc4cccnc4)s3)c2)CC1 | – | – | IC50 [15]: > 50000 nM
COc1cc(C)c(Sc2cnc(NC(=O)c3ccc[nH]3)s2)cc1C(=O)N1CCN(C(C)=O)CC1 | 250 | – | –
CC(=O)N1CCN(C(=O)c2cccc(CSc3cnc(NC(=O)c4ccc(N(C)C)cc4)s3)c2)CC1 | 22000 | – | –
CC(=O)N1CCN(C(=O)c2cc(CSc3cnc(NC(=O)c4ccc(CNC(C)C(C)(C)C)cc4)s3)cc(C)c2C)CC1 (stereo not drawn) | 700 | – | –
CC(=O)N1CCN(C(=O)c2cc(Sc3cnc(Nc4ccccn4)s3)ccc2O)CC1 | 2180 | – | –
COc1cc(C)c(Sc2cnc(NC(=O)C3CC3)s2)cc1C(=O)N1CCN(C(=O)CN(C)C)CC1 | 210 | 0.1 | –

The next lines start with results.

IC50 (Jurkat) [nM] | Stability (Mus musculus [14]; mouse) [nmol/min/mg] | Structure (SMILES) | other results
260 | 0.1 | CNCc1ccc(C(=O)Nc2ncc(Sc3cc(C(=O)N4CCOCC4)c(OC)cc3C)s2)[nH]1 | –
3400 | – | CCNCc1ccc(C(=O)Nc2ncc(Sc3cc(C(=O)N4CCN(C(C)=O)CC4)c(OC)cc3C)s2)cc1 | –
24000 | – | CC(=O)N1CCN(C(=O)c2cccc(Sc3cnc(Nc4ccccn4)s3)c2)CC1 | –
> 50000 | < 0.1 | O=C(O)C1CCN(C(=O)c2cc(Sc3cnc(Nc4cccc(Br)n4)s3)ccc2O)CC1 | –
1000 | > 0.3 | CCN1CCN(C(=O)c2cc(Sc3cnc(NC(=O)C4CC4)s3)c(C)cc2OC)CC1 | –
420 | – | COCc1ccc(C(=O)Nc2ncc(Sc3cc(C(=O)N4CCN(C(C)=O)CC4)c(OC)cc3C)s2)cc1 | –
370 | > 0.3 | CC(=O)N1CCN(C(=O)c2cc(Sc3cnc(Nc4cccc(Br)n4)s3)ccc2O)CC1 | –
25300 | < 0.1 | COc1cc(C)c(Sc2cnc(NC(=O)C3CC3C(=O)O)s2)cc1C(=O)N1CCN(C(C)=O)CC1 (stereo not drawn) | –

Reference: ChEMBL document CHEMBL1138957, “Discovery and SAR of 2-amino-5-(thioaryl)thiazoles as potent and selective Itk inhibitors” (Bioorg Med Chem Lett, 2006)
